Data set [1] deals with T1, AURKA (Homo sapiens, UniProt O14965).
T1 construct: endogenous in cells; host or cells: Jurkat cells
T1 sequence (O14965 1-403): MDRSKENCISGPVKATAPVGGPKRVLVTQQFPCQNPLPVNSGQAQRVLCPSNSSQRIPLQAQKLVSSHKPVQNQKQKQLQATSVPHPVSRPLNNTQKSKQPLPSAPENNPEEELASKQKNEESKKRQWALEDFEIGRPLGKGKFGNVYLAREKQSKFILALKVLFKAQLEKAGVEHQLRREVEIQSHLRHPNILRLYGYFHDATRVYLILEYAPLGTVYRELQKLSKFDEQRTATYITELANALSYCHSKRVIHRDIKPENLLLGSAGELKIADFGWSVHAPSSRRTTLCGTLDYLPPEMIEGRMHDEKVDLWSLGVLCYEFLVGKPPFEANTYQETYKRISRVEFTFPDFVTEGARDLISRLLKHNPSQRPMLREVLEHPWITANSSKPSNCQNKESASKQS
It is filed as cell-based. The procedure, abridged:
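Jurkat cells seeded at 1×10^6 cells/500 µL and treated with compound; lysates run on SDS-PAGE, blotted to nitrocellulose and probed overnight at 4°C for AURKA. Chemiluminescent or fluorescent band intensity fitted to a curve to give DC50 for protein degradation.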

For data set [2], the system named is HCC1806 cells. In words: CTG assay of compound inhibition on cell viability (HCC1806 cells). It is filed as cell-based. Particulars: Homo sapiens, HCC1806, 144 h, read-out: IC50 in HCC1806 Cells. The procedure, abridged: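 HCC1806 cells in RPMI1640 + 10% FBS were exposed to serially diluted compound (0.1% DMSO final) for 6 days at 37°C, 5% CO2. Viability was read as CellTiter-Glo luminescence (ATP) and normalised to DMSO and medium controls. IC50 came from a nonlinear-regression dose-survival curve.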

For data set [3], the system named is H82 cells. In words: cells. It is filed as cell-based. Particulars: Homo sapiens. The procedure, abridged: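 H82 cells in RPMI1640 + 10% FBS exposed to compound (0.1% DMSO final) for 6 days at 37 °C, 5% CO2. Viability read by CellTiter-Glo ATP luminescence, normalised to DMSO and medium controls; IC50 from nonlinear regression of the dose–survival curve.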
Data set [4] is described as follows: Mouse PK study. It is filed as in vivo. The note with it: male CD1 mice; for C0/Cmax / half-life / AUC(0-t) at 24 h / clearance / Vd / Tmax: plasma; for half-life / AUC(0-t) at 24 h / clearance / Vd / Tmax: mouse; for AUC(0-t) at 24 h: read-out: AUC0-24; for clearance: read-out: CLp; for Vd: read-out: Vss. Here is the method:
Male CD1 mice (5-8 weeks old) were administered intravenously (IV) at a dose of 1 mg/kg by tail vein bolus or orally (PO) at doses of 10 mg/kg and 40 mg/kg by gavage. The compound was formulated in a vehicle of 10% DMSO + 10% Solutol HS15 + 80% saline. All animals were given free access to food and water during the experiment. […] Blood samples were centrifuged at 3500 g for 5 min, and the resulting plasma was analyzed by an LC-MS/MS method. The PK parameters were calculated using WinNonlin software (Phoenix®, version 8.3) through non-compartmental analysis methods.

Where [5] appears, read: 100 nM compound, Jurkat cells, 24 h, Table 1.
[6] abbreviates: 1 µM compound, Jurkat cells, 24 h, Table 1.
Where [7] appears, read: 100 nM compound, Jurkat cells, 24 h, Table 2.
The mark [8] stands for this setting: 1 µM compound, Jurkat cells, 24 h, Table 2.

From EP4818168A1, “FUSED RING COMPOUND, PHARMACEUTICAL COMPOSITION THEREOF AND USE THEREOF” (priority 2023, dated 2025) come the findings set out here.

The structures appear in SMILES notation. Read-outs that look alike come from different tables or passages of the source.

A word on the IC50: it is the point on the concentration scale where inhibition reaches its midpoint. Broadly, the half-life is how long it takes for the measured level to halve. High values mean slow loss, low ones fast loss. The Tmax is the time at which the peak concentration occurs.

Regarding `COc1cccc(F)c1C1=NCc2cnc(Nc3ccc(C(=O)NCCN4CCN(c5ccc(N6CCC(=O)NC6=O)cn5)C5(CC5)C4)cc3)nc2-c2ccc(Cl)cc21` [Compound A67], the “Percentage of AURKA Degradation Induced by 100 nM Compound in Jurkat Cells” value (from here on “Percentage … by 100 nM Compound in Jurkat Cells”) in data set [1] (setting [5]) is given as “+ (Degradation ≤ 30%)”. Besides, the “Percentage of AURKA Degradation Induced by 1 µM Compound in Jurkat Cells” value (from here on “Percentage … by 1 µM Compound in Jurkat Cells”) in data set [1] (setting [6]) is given as “+ (Degradation ≤ 30%)”. In addition, the half-inhibitory concentration (IC50) in data set [2] is below 1000 nM.
Regarding `COc1cccc(F)c1C1=NCc2cnc(Nc3ccc(C(=O)NCCN4CCN(c5ccc(N6CCC(=O)NC6=O)cn5)CC45CC5)cc3)nc2-c2ccc(Cl)cc21` [Compound A69], the “Percentage … by 100 nM Compound in Jurkat Cells” value in data set [1] (setting [5]) is on record as “+++ (Degradation > 70%)”. For the same compound, the “Percentage … by 1 µM Compound in Jurkat Cells” value in data set [1] (setting [6]) was “+++ (Degradation > 70%)”. Besides, the IC50 in data set [2] is below 1000 nM.
In the case of `O=C1CCN(c2ccc(N3CC(CN4CC(NC(=O)c5ccc(Nc6ncc7c(n6)-c6ccc(Cl)cc6C(c6c(F)cccc6F)=NC7)cc5)C4)C3)cc2)C(=O)N1` [Compound A70], in data set [1] (setting [5]), the “Percentage … by 100 nM Compound in Jurkat Cells” value was “+++ (Degradation > 70%)”. Also, the “Percentage … by 1 µM Compound in Jurkat Cells” value in data set [1] (setting [6]) was “+++ (Degradation > 70%)”. In addition, the 50% inhibitory concentration (IC50) in data set [2] is below 1000 nM.
For `COc1cccc(F)c1C1=NCc2cnc(Nc3ccc(C(=O)NC4CN(CC5CN(c6ccc(N7CCC(=O)NC7=O)cc6)C5)C4)cc3)nc2-c2ccc(Cl)cc21` [Compound A71], in data set [1] (setting [5]), the “Percentage … by 100 nM Compound in Jurkat Cells” value is “+++ (Degradation > 70%)”. The “Percentage … by 1 µM Compound in Jurkat Cells” value in data set [1] (setting [6]) is “+++ (Degradation > 70%)”. For the same compound, the 50% inhibitory concentration (IC50) in data set [2] is below 1000 nM.
Turning to `O=C1CCN(c2cccc(N3CC(CN4CC(NC(=O)c5ccc(Nc6ncc7c(n6)-c6ccc(Cl)cc6C(c6c(F)cccc6F)=NC7)cc5)C4)C3)c2)C(=O)N1` [Compound A72], the “Percentage … by 100 nM Compound in Jurkat Cells” value in data set [1] (setting [5]) is reported as “+++ (Degradation > 70%)”. Further, in data set [1] (setting [6]), the “Percentage … by 1 µM Compound in Jurkat Cells” value is listed as “+++ (Degradation > 70%)”. Besides, the 50% inhibitory concentration (IC50) in data set [2] was below 1000 nM.
In the case of `COc1cccc(F)c1C1=NCc2cnc(Nc3ccc(C(=O)NC4CN(CC5CN(c6cccc(N7CCC(=O)NC7=O)c6)C5)C4)cc3)nc2-c2ccc(Cl)cc21` [Compound A73], the “Percentage … by 100 nM Compound in Jurkat Cells” value in data set [1] (setting [5]) was “+++ (Degradation > 70%)”. In addition, the “Percentage … by 1 µM Compound in Jurkat Cells” value in data set [1] (setting [6]) is “+++ (Degradation > 70%)”. In addition, in data set [2], the IC50 is below 1000 nM.
In the case of `O=C1CCN(c2cccc(N3CC(N4CC(NC(=O)c5ccc(Nc6ncc7c(n6)-c6ccc(Cl)cc6C(c6c(F)cccc6F)=NC7)cc5)C4)C3)c2)C(=O)N1` [Compound A74], the “Percentage … by 100 nM Compound in Jurkat Cells” value in data set [1] (setting [5]) was “++ (30% < Degradation ≤ 70%)”. Further, in data set [1] (setting [6]), the “Percentage … by 1 µM Compound in Jurkat Cells” value is reported as “++ (30% < Degradation ≤ 70%)”. Further, in data set [2], the IC50 was below 1000 nM.
For `O=C1CCC(N2CCN(C3CN(CCNC(=O)c4ccc(Nc5ncc6c(n5)-c5ccc(Cl)cc5C(c5c(F)cccc5F)=NC6)cc4)C3)CC2=O)C(=O)N1` (stereo not drawn) [Compound A75], in data set [1], the “Percentage … by 100 nM Compound in Jurkat Cells” value was “++ (key: +: Degradation ≤ 30%; ++: 30% < Degradation ≤ 70%; +++: Degradation > 70%)” and the “Percentage … by 1 µM Compound in Jurkat Cells” value was “++ (key: +: Degradation ≤ 30%; ++: 30% < Degradation ≤ 70%; +++: Degradation > 70%)”. Also, in data set [2], the IC50 is 1000 to 10000 nM.
`COc1cccc(F)c1C1=NCc2cnc(Nc3ccc(C(=O)NC45CC(C#Cc6cccc(N7CCC(=O)NC7=O)c6)(C4)C5)cc3)nc2-c2ccc(Cl)cc21` [Compound A77]: in data set [1], the “Percentage … by 100 nM Compound in Jurkat Cells” value is listed as “++ (key: +: Degradation ≤ 30%; ++: 30% < Degradation ≤ 70%; +++: Degradation > 70%)” and the “Percentage … by 1 µM Compound in Jurkat Cells” value was “++ (key: +: Degradation ≤ 30%; ++: 30% < Degradation ≤ 70%; +++: Degradation > 70%)”. The IC50 in data set [2] was 1000 to 10000 nM.
On to `COc1cc(Nc2ncc3c(n2)-c2ccc(Cl)cc2C(c2c(F)cccc2OC)=NC3)ccc1C(=O)NC1CC2(CCN(c3ncc(N4CCC(=O)NC4=O)s3)CC2)C1` [Compound A80], for which the “Percentage … by 100 nM Compound in Jurkat Cells” value in data set [1] (setting [5]) was “++ (30% < Degradation ≤ 70%)”. For the same compound, the “Percentage … by 1 µM Compound in Jurkat Cells” value in data set [1] (setting [6]) was “+++ (Degradation > 70%)”. Besides, in data set [2], the half-maximal inhibitory concentration (IC50) is below 1000 nM.
In the same order, the values of `O=C1CCN(c2cnc(N3CCC4(CC3)CC(NC(=O)c3ccc(Nc5ncc6c(n5)-c5ccc(Cl)cc5C(c5c(F)cccc5F)=NC6)cc3)C4)s2)C(=O)N1` [Compound A81] are “+++ (Degradation > 70%)”, “+++ (Degradation > 70%)” and below 1000 nM.
Turning to `O=C1CCN(c2ccc(N3CCO[C@H](C(=O)N4CCN(c5ccc(Nc6ncc7c(n6)-c6ccc(Cl)cc6C(c6c(F)cccc6F)=NC7)cc5)CC4)C3)nc2)C(=O)N1` [Compound A307], the “Percentage … by 100 nM Compound in Jurkat Cells” value in data set [1] (setting [7]) is “+++ (Degradation > 70%)”. Also, in data set [1] (setting [8]), the “Percentage … by 1 µM Compound in Jurkat Cells” value is “+++ (Degradation > 70%)”. Also, the 50% inhibitory concentration (IC50) in data set [3] (NCI-H82, H82 cells, 4000 cells/well, CellTiter-Glo, read-out: IC50 in H82 Cells) is below 1000 nM. For the same compound, in data set [4] (IV 1 mg/kg), the C0/Cmax is listed as 1527 ng/mL, the half-life was 2.28 h, the AUC(0-t) at 24 h came out at 2450 ng·h/mL and the clearance came to 6.33 mL/min/kg. In addition, the Vd in data set [4] (IV 1 mg/kg) is 1.04 L/kg. Further, in data set [4] (PO 10 mg/kg), the F is given as 79.7%, the C0/Cmax was 2460 ng/mL, the Tmax was 2 h and the half-life is 2.41 h. In addition, the AUC(0-t) at 24 h in data set [4] (PO 10 mg/kg) was determined as 19500 ng·h/mL. Besides, in data set [4] (PO 40 mg/kg), the F is 80.6%, the C0/Cmax is 7283 ng/mL, the Tmax turned out to be 3.33 h and the half-life was 2.37 h. For the same compound, the AUC(0-t) at 24 h in data set [4] (PO 40 mg/kg) turned out to be 78900 ng·h/mL.
`O=C1CCN(c2ccc(N3CCC4(CC3)CC(N3CCN(C56CC(Nc7ncc8c(n7)-c7ccc(Cl)cc7C(c7c(F)cccc7F)=NC8)(C5)C6)C(=O)C3)CO4)nc2)C(=O)N1` (stereo not drawn) [Compound A321]: the “Percentage … by 100 nM Compound in Jurkat Cells” value in data set [1] (setting [7]) was “+++ (Degradation > 70%)”. Further, in data set [1] (setting [8]), the “Percentage … by 1 µM Compound in Jurkat Cells” value is on record as “+++ (Degradation > 70%)”. For the same compound, the IC50 in data set [3] (NCI-H82, read-out: IC50 in H82 Cells) is below 1000 nM. In data set [4] (IV 1 mg/kg), the C0/Cmax is 1307 ng/mL, the half-life is 1.89 h, the AUC(0-t) at 24 h was 2630 ng·h/mL and the clearance is 6.16 mL/min/kg. In addition, the Vd in data set [4] (IV 1 mg/kg) was found to be 0.97 L/kg. Further, in data set [4] (PO 10 mg/kg), the F stood at 157%, the C0/Cmax is 4007 ng/mL, the Tmax is 3.33 h and the half-life was 2.13 h. The AUC(0-t) at 24 h in data set [4] (PO 10 mg/kg) stood at 41400 ng·h/mL. Also, in data set [4] (PO 40 mg/kg), the F is on record as 130%, the C0/Cmax was 13233 ng/mL, the Tmax came out at 3.33 h and the half-life is 1.97 h. The AUC(0-t) at 24 h in data set [4] (PO 40 mg/kg) stood at 137000 ng·h/mL.
For `COc1cc(Nc2ncc3c(n2)-c2ccc(Cl)cc2C(c2c(F)cccc2OC)=NC3)ccc1C(=O)O` [alisertib, reference compound], the “Percentage … by 100 nM Compound in Jurkat Cells” value in data set [1] (setting [5]) was “+ (Degradation ≤ 30%)”. Further, the “Percentage … by 1 µM Compound in Jurkat Cells” value in data set [1] (setting [6]) is recorded as “+ (Degradation ≤ 30%)”. For the same compound, in data set [2], the IC50 is below 1000 nM.
